The text below walks through data of patent US7776833B2, “Use of cyclic bioisosters of purine system derivatives for treating diseases produced by disorders of niterergic and dopaminergic systems” (priority 2003, dated 2010).

Holding throughout (assay type): in vivo, Wistar rats
The subject of experiment [1] is nitrites and nitrates (NOx-). The experiment can be described thus: Measurement of nitrates/nitrites (NOx-) in brain regions after the morphine abstinence experiment. On the procedure: (§1) After the above experiments the rat brains were isolated and immediately placed in the ice cold 0.9% solution of sodium chloride. After cooling the following structures were isolated from the brain: cerebral cortex, hippocampus, mesencephalon, striatum, brainstem, hypothalamus and cerebellum. The isolated tissue was homogenized in a Potter S homogenizer for 3 minutes at 1500 rpm in 4-5 volumes of 20 mM HEPES (pH 7.5) at 4° C. The supernatants were centrifuged for 30 minutes at 11000 g at 4° C., and aliquots of the obtained supernatants were taken for determining nitrates and nitrites (NOx-), while the remaining part was mixed with cooled 20 mM of HEPES (pH 7.5), containing 0.5 mM ethylenediamine tetraacetate (EDTA), 1 mM dithiotreitol (DDT), 1 mM phenylmethylsulfonyl fluoride (PMSF), aprotinine and leupeptine at a concentration of 5 μg/ml, this mixture being used for determining nitric oxide synthase (NOS) activity.
To estimate the intensity of metabolism of nitric oxide in rats, quantitative determination of stable metabolites of nitrogen oxide-nitrites and nitrates (NOx-) was performed using a fluorometric method by fluorescence of naphthotriazole, a product of reaction of 2,3- diaminonaphthalene (DAN) and nitrite in an acidic medium (Misko T. R., Schilling R. J., Salvemini D. et al. A fluorometric assay for the measurement of nitrite in biological samples. Anal. Biochem., 1993, V. 214, p.11-16) with modifications (Lei B., Adachi N., Nagaro T., Arai T. Measurement of total nitric oxide metabolite (NO (x) (-)) levels in vivo. Brain. Res. Protoc., 1999, V. 4, p. 415-419).
The supernatants of brain deproteinized at 100° C. were placed in a nitrite recovery system containing 0.125 unit/ml of nitrate reductase, 25 μM NADPH and 25 μM FAD prepared in 20 mM Tris-HCl buffer pH 7.6 and incubated for 30 minutes at 37° C. For oxidation of NADPH a lactate dehydrogenase (LDH)/pyruvate system was used. Then 316.0 μM DAN solution in 0.62 M HCl was added and the mixture was incubated for 10 minutes in dark. For stabilization of fluorescence of the formed naphthotriazole, 280 mM NaOH was added. The fluorescence intensity was measured using spectrofluorometer Hitachi F-3000 at a wavelength of excitation 365 nm and emission 405 nm. To calculate the concentration of NOx- in the brain a standard solution of sodium nitrate was used. The concentration of NOx- was expressed in nmol/mg of protein.
(§2) The content of protein in the samples was determined by the Bradford method (Bradford M. M. A rapid and sensitive method for quantitation of microgram quantities of protein using the principle of protein binding . Anal. Biochem., 1976, V. 72, p. 248-254) using Coumassi dye. The statistical analysis was performed using methods appropriate for respective experiments. The data are expressed as mean±standard error of mean.

Experiment [2] has as its system physical dependence from morphine (morphine abstinence). The experiment in a line: Morphine abstinence syndrome, signs scored in the open field test. On the procedure: Thirty six hours after the last injection selected motor and autonomice parameters which are specific symptoms of abstinence were monitored in the <<open field>> test (an arena with a diameter of 120 cm and wall height of 40 cm).
Med., 2002, V.29, p.1-6.). The observable signs were recorded quantitatively (if it was possible) with further assignment of an index to each sign (depending on the specific feature of the sign) and calculation of the sum of scores. The expression of the abstinence syndrome was presented as a sum of scores. The results were processed using nonparametric statistical analysis based on the Mann-Whitney test.

In experiment [3] the test system is nitric oxide synthase (NOS). The experiment can be described thus: Nitric oxide synthase activity in brain regions, radiometric [3H]L-citrulline method. The following applies: 3 x 20 mg/kg intramuscularly. On the procedure:
as §1
The activity of nitric oxide synthase (NOS) was determined using a radiometric method by the rate of L-citrulline accumulation in a reaction of [^3H] L-arginine oxidation catalyzed by NOS (Bredt M., Snyder S. Nitric oxide mediates glutamate-linked enhancement of cGMP levels in the cerebellum. Proc. Natl. Acad. Sci., USA, 1989, V.86, p.9030-9033). The formation of L-citrulline in this reaction is equivalent to a biosynthesis of nitric oxide.
The reaction was initiated by adding brain supernatant in the reaction medium containing 2 μCi/ml of [3H] L-arginine, 20 mM HEPES (pH 7.4), 0.2 mM CaCl2, 5 μM FAD, 5 μM FMN, 1 mM NADPH, 50 μM of BH4. After 15-60 minutes of incubation at 37° C. a suspension of Dowex 50WX8-400 (Na^+-form), which sorbs unreacted [^3H]L-arginine, but not [^3H] L-citrulline was added to the samples. After the sorption the radioactivity of the samples was determined on a scintillation counter SL-4000 (“Intertechnique”). The activity of Ca^2+-dependent and Ca^2+-independent NOS isoforms was determined by the difference of rates of [^3H]L-citrulline formation in three parallel samples containing 2 mM EDTA (Ca^2+ chelator), 2 mM EDTA+2 mM L-NAME (inhibitor all NOS isoforms) or without inhibitors. The enzyme activity was expressed in rnol [^3H]L-citrulline acumulated per 1 minute on 1 mg of supernatant protein.
as §2

Setting [4] is: Groups Nos. 3-14, compound without morphine, 3 x 20 mg/kg intramuscularly, one value for all 12 compounds.
Where [5] appears, read: Morphine + compound, 3 x 20 mg/kg intramuscularly, one value for the three compounds.
[6] abbreviates: Morphine − (morphine + compound), compound 3 x 20 mg/kg intramuscularly, one value for the three compounds.
[7] abbreviates: Groups Nos. 3-14, compound without morphine, one value for all 12 compounds.
The mark [8] stands for this setting: Morphine + compound, one value for the three compounds.
The mark [9] stands for this setting: Control − morphine, open field, 36 h after last morphine injection.

As to `O=c1[nH][nH]c(=O)c2ncccc12.[Li]` [Compound 6, lithium salt of pyrido [2,3-d]-6H-pyridazine-5,8-dione], in experiment [1] (setting [4]), the “Nitrites, brainstem” value is on record as 6.31 ± 0.58 nmol/mg of protein; the “Nitrites, cerebellum” value was 6.66 ± 0.63 nmol/mg of protein; the “Nitrites, cerebral cortex” value is recorded as 4.31 ± 0.37 nmol/mg of protein; the “Nitrites, hippocampus” value is 6.47 ± 0.72 nmol/mg of protein. Moreover, in experiment [1] (setting [4]), the “Nitrites, hypothalamus” value was 6.77 ± 0.83 nmol/mg of protein; the “Nitrites, midbrain” value is 6.65 ± 0.70 nmol/mg of protein; the “Nitrites, striatum” value is reported as 6.11 ± 0.29 nmol/mg of protein. In experiment [1] (setting [5]), the “Nitrites, brainstem” value is recorded as 6.57 ± 0.72 nmol/mg of protein; the “Nitrites, cerebellum” value is listed as 5.46 ± 0.44 nmol/mg of protein; the “Nitrites, cerebral cortex” value was 4.72 ± 0.37 nmol/mg of protein; the “Nitrites, hippocampus” value was 5.44 ± 0.43 nmol/mg of protein. Moreover, in experiment [1] (setting [5]), the “Nitrites, hypothalamus” value was 6.57 ± 0.88 nmol/mg of protein; the “Nitrites, midbrain” value was 5.50 ± 0.48 nmol/mg of protein; the “Nitrites, striatum” value is reported as 3.57 ± 0.42 nmol/mg of protein. In addition, in experiment [2] (setting [6]), the “Authentic differences (ξ-square criterion) in appearance of signs of abstinence: <<Wet dog>> shakes” value stood at 1.0000, the “Authentic differences (ξ-square criterion) in appearance of signs of abstinence: Aggression” value was 0.8327, the “Authentic differences (ξ-square criterion) in appearance of signs of abstinence: Convulsions” value came to 0.7821 and the “Authentic differences (ξ-square criterion) in appearance of signs of abstinence: Diarrhea” value is reported as 0.0046. In experiment [2] (setting [6]), the “Authentic differences (ξ-square criterion) in appearance of signs of abstinence: Dyspnea” value was determined as 0.0722, the “Authentic differences (ξ-square criterion) in appearance of signs of abstinence: Forelimb jogging” value is on record as 0.7821, the “Authentic differences (ξ-square criterion) in appearance of signs of abstinence: Grit with teeth” value is recorded as 0.7144 and the “Authentic differences (ξ-square criterion) in appearance of signs of abstinence: Mastication” value was found to be 0.1888. Moreover, in experiment [2] (setting [6]), the “Authentic differences (ξ-square criterion) in appearance of signs of abstinence: Piloerection” value is reported as 0.1847, the “Authentic differences (ξ-square criterion) in appearance of signs of abstinence: Ptosis” value is recorded as 0.0201, the “Authentic differences (ξ-square criterion) in appearance of signs of abstinence: Rhinorrhea” value was determined as 0.3017 and the “Authentic differences (ξ-square criterion) in appearance of signs of abstinence: Squeak when touched” value worked out at 0.1888. In addition, in experiment [3] (setting [7]), the “Activity of NOS, hippocampus” value is recorded as 3.09 ± 0.16 nmol/min/mg of protein; the “Activity of NOS, hypothalamus” value is listed as 5.45 ± 0.24 nmol/min/mg of protein; the “Activity of NOS, midbrain” value is on record as 2.60 ± 0.29 nmol/min/mg of protein; the “Activity of NOS, striatum” value is given as 1.26 ± 0.08 nmol/min/mg of protein. For the same compound, in experiment [3] (setting [8]), the “Activity of NOS, hippocampus” value was 2.70 ± 0.14 nmol/min/mg of protein; the “Activity of NOS, hypothalamus” value is reported as 5.26 ± 0.28 nmol/min/mg of protein; the “Activity of NOS, midbrain” value is 1.83 ± 0.23 nmol/min/mg of protein; the “Activity of NOS, striatum” value is 1.24 ± 0.08 nmol/min/mg of protein.
As for `CN1CC[C@]23c4c5ccc(O)c4O[C@H]2[C@@H](O)C=C[C@H]3[C@H]1C5.Cl` [morphine, morphine hydrochloride, reference compound], in experiment [1] (Group No. 2 (morphine)), the “Nitrites, cerebellum” value is 6.07 ± 0.42 nmol/mg of protein; the “Nitrites, hippocampus” value is given as 6.45 ± 0.69 nmol/mg of protein; the “Nitrites, hypothalamus” value is recorded as 4.62 ± 0.71 nmol/mg of protein. In experiment [2] (setting [9]), the “Authentic differences (ξ-square criterion) in appearance of signs of abstinence: <<Wet dog>> shakes” value amounted to 0.0002, the “Authentic differences (ξ-square criterion) in appearance of signs of abstinence: Aggression” value is listed as 0.5770, the “Authentic differences (ξ-square criterion) in appearance of signs of abstinence: Convulsions” value is on record as 0.0507 and the “Authentic differences (ξ-square criterion) in appearance of signs of abstinence: Diarrhea” value worked out at 0.0075. In experiment [2] (setting [9]), the “Authentic differences (ξ-square criterion) in appearance of signs of abstinence: Dyspnea” value is on record as 0.0053, the “Authentic differences (ξ-square criterion) in appearance of signs of abstinence: Forelimb jogging” value was 0.0180, the “Authentic differences (ξ-square criterion) in appearance of signs of abstinence: Grit with teeth” value amounted to 0.1266 and the “Authentic differences (ξ-square criterion) in appearance of signs of abstinence: Piloerection” value is recorded as 0.5770. Further, in experiment [2] (setting [9]), the “Authentic differences (ξ-square criterion) in appearance of signs of abstinence: Ptosis” value is on record as 0.0053, the “Authentic differences (ξ-square criterion) in appearance of signs of abstinence: Rhinorrhea” value was 0.2994 and the “Authentic differences (ξ-square criterion) in appearance of signs of abstinence: Squeak when touched” value amounted to 0.0053.
